According to ChEMBL document CHEMBL1201862, “PubChem BioAssay data set” (2004):
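Grown in 96-well plates, cells were treated for 48 hours with each compound at five concentrations. Insufficient inhibition: endpoint recorded as highest concentration tested. At the GI50, growth is halved.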 Activity calls are given as the source filed them. No stated cut-off is given here; in the data, active = GI50 up to about 1.1 µM and inactive = higher.

Experiments:
Experiment in all cases: NCI-60 cell line screen, 48 h
786-0 = tested on: 786-0
A498 = tested on: A498
HCC 2998 = tested on: HCC 2998
HOP-62 = tested on: HOP-62
IGROV-1 = tested on: IGROV-1
K562 = tested on: K562
LXFL 529 = tested on: LXFL 529
MOLT-4 = tested on: MOLT-4
Malme-3M = tested on: Malme-3M
NCI-H460 = tested on: NCI-H460
OVCAR-5 = tested on: OVCAR-5
RXF 393 = tested on: RXF 393
SF-268 = tested on: SF-268
SK-MEL-5 = tested on: SK-MEL-5
SN12C = tested on: SN12C
UACC-62 = tested on: UACC-62
DU-145 = tested on: DU-145
Hs-578T = tested on: Hs-578T
MCF7 = tested on: MCF7
T47D = tested on: T47D

Row | Compound | GI50 (786-0) | GI50 (A498) | GI50 (HCC 2998) | GI50 (HOP-62) | GI50 (IGROV-1) | GI50 (K562) | GI50 (LXFL 529) | GI50 (MOLT-4) | GI50 (Malme-3M) | GI50 (NCI-H460) | GI50 (OVCAR-5) | GI50 (RXF 393) | GI50 (SF-268) | GI50 (SK-MEL-5) | GI50 (SN12C) | GI50 (UACC-62) | GI50 (DU-145) | GI50 (Hs-578T) | GI50 (MCF7) | GI50 (T47D)
1 | CCc1cccc(C(C)CC)c1NC(=O)C(=O)Cc1nc2ccccc2o1 (configuration not stated) | > 50 µM (inactive) | > 50 µM (inactive) | > 50 µM (inactive) | > 50 µM (inactive) | > 50 µM (inactive) | > 50 µM (inactive) | > 50 µM (inactive) | > 34.5 µM (inactive) | > 50 µM (inactive) | > 50 µM (inactive) | > 43.8 µM (inactive) | > 50 µM (inactive) | > 50 µM (inactive) | > 50 µM (inactive) | > 50 µM (inactive) | > 50 µM (inactive) |  |  |  | 
2 | COC(=O)CCC(NC(=S)N/N=C(\C)c1cnc2ccccc2n1)C(=O)OC (configuration not stated) | 43.6 µM (inactive) | 92.9 µM (inactive) | 32.1 µM (inactive) | 45.7 µM (inactive) | 35.4 µM (inactive) | 10.1 µM (inactive) | 29.9 µM (inactive) | 15.6 µM (inactive) | 41.3 µM (inactive) | 45.9 µM (inactive) | 16.3 µM (inactive) | 30.2 µM (inactive) | 29.7 µM (inactive) | 21.2 µM (inactive) | 60.1 µM (inactive) | 16.9 µM (inactive) |  |  |  | 
3 | CC1=C(C(=O)Nc2cccc(Cl)c2)C(c2ccccc2F)C(C(=O)Nc2cccc(Cl)c2)=C(C)N1 | 13.7 µM (inactive) | 13.9 µM (inactive) | 7.57 µM (inactive) | 15.8 µM (inactive) | 15 µM (inactive) | 4.79 µM (inactive) | 8.11 µM (inactive) | 2.51 µM (inactive) | 15.8 µM (inactive) | 6.7 µM (inactive) | 19.3 µM (inactive) | 7.24 µM (inactive) | 11.8 µM (inactive) | 13.5 µM (inactive) | 11 µM (inactive) |  |  |  |  | 
4 | Cc1ccc(Oc2ccc(C)cc2N)cc1 | 86.9 µM (inactive) | > 100 µM (inactive) | > 100 µM (inactive) | > 100 µM (inactive) | > 100 µM (inactive) | 60.8 µM (inactive) | > 100 µM (inactive) | 53 µM (inactive) | > 100 µM (inactive) | > 100 µM (inactive) | 68.4 µM (inactive) | 31.5 µM (inactive) | 97.7 µM (inactive) | 44.1 µM (inactive) | 97.7 µM (inactive) | > 100 µM (inactive) |  |  |  | 
5 | COc1ccc2oc3c4c2c1CCC4CCC3=O (configuration not stated) | > 100 µM (inactive) | 6.75 µM (inactive) | > 100 µM (inactive) | > 100 µM (inactive) | > 100 µM (inactive) | > 100 µM (inactive) | > 100 µM (inactive) | 52.8 µM (inactive) | > 100 µM (inactive) | > 100 µM (inactive) | > 100 µM (inactive) | 36.1 µM (inactive) | 85.9 µM (inactive) | > 100 µM (inactive) | > 100 µM (inactive) | > 100 µM (inactive) |  |  |  | 
6 | COC(=O)C(=O)C(C(C)=O)C(=O)NCc1ccccc1 (configuration not stated) | > 100 µM (inactive) | > 100 µM (inactive) | > 100 µM (inactive) | > 100 µM (inactive) | > 100 µM (inactive) | > 100 µM (inactive) | > 100 µM (inactive) | > 100 µM (inactive) | > 100 µM (inactive) | > 100 µM (inactive) | > 100 µM (inactive) | > 100 µM (inactive) | > 100 µM (inactive) | > 100 µM (inactive) | > 100 µM (inactive) | > 100 µM (inactive) |  |  |  | 
7 | O=C(Cc1ccccc1)N/N=C(\C1=Nc2ccc([N+](=O)[O-])cc2NC1O)C(O)c1ccc([N+](=O)[O-])cc1 (configuration not stated) | > 100 µM (inactive) | > 100 µM (inactive) | 99.5 µM (inactive) | > 100 µM (inactive) | > 100 µM (inactive) | 28.2 µM (inactive) | 42.6 µM (inactive) |  | > 100 µM (inactive) | > 100 µM (inactive) | > 100 µM (inactive) | > 100 µM (inactive) | > 100 µM (inactive) | 68.9 µM (inactive) | > 100 µM (inactive) | 54 µM (inactive) |  |  |  | 
8 | CCOP(=O)(OCC)C(C(=O)OC)C(=O)C(=O)Nc1c(C)cc(Br)cc1C (configuration not stated) | > 100 µM (inactive) | > 100 µM (inactive) | > 100 µM (inactive) | > 100 µM (inactive) | > 100 µM (inactive) | > 100 µM (inactive) | > 100 µM (inactive) | > 100 µM (inactive) | > 100 µM (inactive) | > 100 µM (inactive) | > 100 µM (inactive) | > 100 µM (inactive) | > 100 µM (inactive) | > 100 µM (inactive) | > 100 µM (inactive) | > 100 µM (inactive) |  |  |  | 
9 | O=C1C(Cl)=C(N2CCN(C3=C(Cl)C(=O)c4ccccc4C3=O)CC2)C(=O)c2ccccc21 | 1.82 µM (inactive) | 3.49 µM (inactive) | 2.78 µM (inactive) | 12.4 µM (inactive) | 1.91 µM (inactive) | 0.121 µM (active) | 0.297 µM (active) | 0.232 µM (active) | 1.91 µM (inactive) | 3.54 µM (inactive) | 6.64 µM (inactive) | 1.63 µM (inactive) | 2.62 µM (inactive) | 1.79 µM (inactive) | 1.69 µM (inactive) | 1.79 µM (inactive) | 4.91 µM (inactive) | 2.22 µM (inactive) | 1.72 µM (inactive) | 0.729 µM (active)
10 | COCCOCOC(CCCCO)c1cc(C)c(O[Si](C)(C)C(C)(C)C)c(C)c1 (configuration not stated) | 11.1 µM (inactive) | 12.4 µM (inactive) | 7.03 µM (inactive) | 10.8 µM (inactive) | 12.2 µM (inactive) | 3.22 µM (inactive) | 10.4 µM (inactive) | 2.86 µM (inactive) | 2.47 µM (inactive) | 5.24 µM (inactive) | 13.7 µM (inactive) | 2.26 µM (inactive) | 6.05 µM (inactive) | 2.64 µM (inactive) | 2.69 µM (inactive) | 12.2 µM (inactive) |  |  |  | 
11 | COc1ccc(/C=C\c2cc(OC)c3c(c2)OCO3)c(O)c1O | 3.26 µM (inactive) | 8.3 µM (inactive) | 21.5 µM (inactive) | 7.59 µM (inactive) | 4.71 µM (inactive) | 4.14 µM (inactive) | 2.07 µM (inactive) | 6.35 µM (inactive) | 13.4 µM (inactive) | 5.37 µM (inactive) | 26.7 µM (inactive) | 3.94 µM (inactive) | 4.47 µM (inactive) | 2.3 µM (inactive) | 15 µM (inactive) | 3.33 µM (inactive) |  |  |  | 
12 | CC1C2=CC=C(O2)C(C)(C)C2=CC=C(O2)C(C)(C)C2=CC=C(O2)C(C)(C)C2=CC=C1O2 | > 100 µM (inactive) | > 100 µM (inactive) | > 100 µM (inactive) | > 100 µM (inactive) | > 100 µM (inactive) | > 100 µM (inactive) | > 100 µM (inactive) | > 100 µM (inactive) | > 100 µM (inactive) | > 100 µM (inactive) | > 100 µM (inactive) | > 100 µM (inactive) | > 100 µM (inactive) |  | > 100 µM (inactive) |  |  |  |  | 
13 | COc1ccc2c(NCCCCCCNc3c4ccccc4nc4cc(OC)ccc34)c3ccccc3nc2c1 | 0.0753 µM (active) | 0.516 µM (active) | 0.135 µM (active) | 0.137 µM (active) | 0.075 µM (active) | 0.0334 µM (active) | 0.04 µM (active) | 0.0146 µM (active) | 0.427 µM (active) | 0.0272 µM (active) | 0.186 µM (active) | 0.0834 µM (active) | 0.213 µM (active) | 1.01 µM (active) | 0.0676 µM (active) | 0.263 µM (active) | 0.204 µM (active) | 0.219 µM (active) | 0.0475 µM (active) | 0.421 µM (active)
14 | BrC1(Br)C2/C=C\CCCCC21 (configuration not stated) | > 100 µM (inactive) | > 100 µM (inactive) | > 100 µM (inactive) | > 100 µM (inactive) | > 100 µM (inactive) | > 100 µM (inactive) | > 100 µM (inactive) | > 100 µM (inactive) | > 100 µM (inactive) | > 100 µM (inactive) | > 100 µM (inactive) | > 100 µM (inactive) | > 100 µM (inactive) |  | > 100 µM (inactive) |  |  |  |  | 
15 | CC1(c2ccc(F)cc2)C2C(=O)NC(=O)C1C(=O)NC2=O (configuration not stated) | > 100 µM (inactive) | > 100 µM (inactive) | > 100 µM (inactive) |  | > 100 µM (inactive) | > 100 µM (inactive) | > 100 µM (inactive) | > 100 µM (inactive) | > 100 µM (inactive) | > 100 µM (inactive) | > 100 µM (inactive) | > 100 µM (inactive) | > 100 µM (inactive) | > 100 µM (inactive) | > 100 µM (inactive) | > 100 µM (inactive) |  |  |  | 
16 | CC1=NN(c2ccccc2)C(=O)C1=C1SCCS1 | > 72.9 µM (inactive) | > 77.1 µM (inactive) | > 87.1 µM (inactive) | > 100 µM (inactive) | 82.4 µM (inactive) | 43.6 µM (inactive) | > 67.9 µM (inactive) | 15 µM (inactive) | > 67.6 µM (inactive) | 50.7 µM (inactive) | > 100 µM (inactive) | 37 µM (inactive) | > 94.6 µM (inactive) | 59.3 µM (inactive) | > 83 µM (inactive) | > 62.2 µM (inactive) |  |  |  | 
